Laboratory results as given in US11485700B2, “Synthesis of (+)-cannabinoids and their therapeutic effects” (SYMRISE AG, priority 2018, dated 2022).
Like-named read-outs stand apart in the source and are kept apart here.

Tests used:
[1] = test system: PolyIC-treated human keratinocytes (HaCat); test: Poly I:C-induced proteases in human HaCat keratinocytes; format: cell-based; settings: Poly I:C 10 μg/ml, 24 h; for inhibition at 25 µM: Homo sapiens, HaCaT; for inhibition of Poly I:C-stimulated TIMP1: maximal effect, doses up to 25 μM
Protocol: (§1) Cell cultures: Human primary monocytes were extracted from the whole blood of medically healthy volunteers, who provided written informed consent at the local blood bank (University Hospital of Freiburg, Germany), following a standardized protocol (gradient preparation, Lymphocytes separation medium, PAN Biotech, P04-60125, Aidenbach, Germany) using completely endotoxin-free cultivation. Using 50 ml tubes, 25 ml Pancoll was loaded with 25 ml of blood (buffy coats). The gradient was established by centrifugation at 1800 rpm, 20° C. for 40 min with slow acceleration and deceleration. Peripheral blood mononuclear cells in the interphase were carefully removed and re-suspended in 50 ml pre-warmed phosphate-buffered saline (PBS) (Pan Biotech, P04-36500), followed by centrifugation for 10 min at 1600 rpm and 20° C. The supernatant was discarded and the pellet washed in 50 ml PBS and centrifuged as described above. The pellet was then re-suspended in 50 ml RPMI-1640 low-endotoxin medium supplemented with 10% human serum (Hexcell, Berlin, Germany, SP2080). After counting the number of cells in a particle counter (Euro Diagnostics, Krefeld, Germany), cells were seeded in 24-well plates for enzyme linked immunosorbent assay (ELISA) (2.2 mio. cells/well) or 96-well plates at a density of 2×10^4 cells/well for cell viability testing, and incubated at 37° C. with 5% CO2. The medium and the non-adherent cells (lymphocytes) were removed and fresh RPMI-1640 medium containing 1% human serum added. Enriched monocytes were then ready to be used for the experiments. Primary human fibroblasts and HaCat keratinocytes were obtained from the Uniklinik Freiburg. All cells were maintained in supplemented DMEM (Invitrogen, Life-Technologies, Darmstadt, Germany) medium containing 10% FBS (Bio&Sell, Feucht, Germany) and 1% antibiotics penicillin/streptomycin (from Invitrogen, DMEM complete medium) at 37° C. in a humidified atmosphere of 5% CO2.
Determination of MMPs and TIMPs in keratinocytes: Keratinocytes (HaCat) were cultivated as described above. Cells were seeded in 24-well plates incubated with Poly I:C (InvivoGen, San Diego, Calif.; USA, 10 μg/ml) in absence and presence of the cannabinoids (5 doses, n=3) for 24 h. Unstimulated cells served as a negative control. 24 h after cell stimulation, supernatants were removed, centrifuged and investigated for MMP1, MMP9 and TIMP1 concentrations by ELISAs according to the manufacturer's protocol (from Biotechne, Wiesbaden, Germany). The respective extinction was determined using a 96-well plate reader (Berthold, Offenburg, Germany).

CB1 receptor = CB1 receptor (Homo sapiens (Human), UniProt P21554); test: In vitro binding to CB1 receptor, [3H]-CP55940 radioligand displacement; settings: for CB1/CB2 selectivity: ratio of CB1-Ki to CB2-Ki
Protocol: (§2) Compounds with an expected profile as CB1 and/or CB2 receptor ligands were evaluated by competition studies that allow determining the affinity of these compounds (Ki values) for both receptors against a classical cannabinoid ligand. The competition studies were conducted with membranes transfected with either CB1 or CB2 receptors. For stock solutions the compounds were dissolved at concentrations of 50 and 100 mM and stored at −20° C.
(§3) 96-well plates and the tubes necessary for the experiment were siliconized with Sigmacote (Sigma). Membranes were resuspended in the corresponding buffer and were incubated with the radioligand and each compound for 90 min at 30° C. Non-specific binding was determined with 10 μM WIN55212-2 and 100% binding of the radioligand to the membrane was determined by its incubation with membrane and without any compound. Filtration was performed by a Harvester®filtermate (Perkin-Elmer) with Filtermat A GF/C filters pretreated with polyethylenimine 0.05%. After filtering, the filter was washed nine times with binding buffer, dried and a melt-on scintillation sheet (Meltilex™ A, Perkin Elmer) was melted onto it. Then, radioactivity was quantified by a liquid scintillation spectrophotometer (Wallac MicroBeta Trilux, Perkin-Elmer).
(§4) Radioligand displacement assays were used to evaluate the affinity of the new compounds using membranes from cells (HEK293EBNA) transfected with the CB1 or the CB2 receptors and [^3H]-CP55940 as radioligand. The evaluation of the compounds was conducted in two phases. The first phase consisted in a simple screening with a unique and high concentration of each compound (40 μM). The data was collected from at least three experiments performed in triplicate. […] This consisted of a competition study with [^3H]CP55940 (0.10 nM for CB1 and 0.15 nM for CB2) and different concentrations of the selected compounds (10^−4-10^−11M). The data was analyzed, by using GraphPad Prism® version 5.01 (GraphPad Software Inc., San Diego, Calif., USA), for the calculation of Ki values expressed as mean±SEM of at least three experiments performed in triplicate for each point.

[2] = test system: IL-1-treated human dermal fibroblasts; test: IL-1-induced inflammatory parameters in human dermal fibroblasts; format: cell-based; settings: IL-1beta 10 U/ml, 24 h; for inhibition of IL-1-induced PGE2 / inhibition of IL-1-stimulated IL-6 release / inhibition of IL-1-stimulated IL-8 release: maximal effect, doses up to 25 μM
Protocol: as §1
Determination of inflammatory molecules in fibroblasts: Primary human fibroblasts were cultivated as described above and seeded (500000 cells/well) in 24-well plates. Cells were incubated with IL-1beta (Roche, Mannheim, Germany, 10 U/ml) in absence and presence of the cannabinoids (5 doses, n=3) for 24 h. Unstimulated cells served as a negative control. 24 h after cell stimulation, supernatants were removed, centrifuged and investigated for IL-6, PGE2, and IL-8 concentrations by ELISAs according to the manufacturer's protocol (PGE2 from Cayman/Biomol, Hamburg, Germany; IL-6, and IL-8 from Immuno-tools, Frisoythe, Germany). The respective extinction is determined using a 96-well plate reader (Berthold, Offenburg, Germany).

CB2 receptor [3] = target: T1, CB2 receptor (Homo sapiens (Human), UniProt P34972); test: In vitro binding to CB2 receptor, [3H]-CP55940 radioligand displacement
Protocol: as §2, §3, §4

[4] = test system: LPS-treated human monocytes; test: LPS-induced inflammatory parameters in human monocytes; format: cell-based; settings: for inhibition at 25 µM: Homo sapiens, Monocyte, maximal effect at 25 μM; for inhibition of LPS-stimulated TNFalpha release / inhibition of LPS-induced IL-6: maximal effect, doses up to 25 μM
Protocol: as §1
Measurement of cytokines and PGE2 in primary human monocytes: Cells were incubated with LPS (Sigma-Aldrich, Taufkirchen, Germany, 10 ng/ml) for 24 h. The cannabinoids (5 doses) were added 30 min before LPS treatment. After 24 h, supernatants were removed, centrifuged and investigated for IL-1beta, IL-8, IL-6, TNFalpha, MMP9, isoprostane, and PGE2 concentrations in EIAs (PGE2 and isoprostane, from Cayman/Biomol, Hamburg, Germany) or ELISAs (IL-1beta, Hiss, Freiburg, Germany; TNFalpha, IL-6 and IL-8, ImmunoTools, Frysoithe, Germany, MMP9, Biotechne, Wiesbaden, Germany) using manufacturer's protocol. The respective extinction was determined using a 96-well plate reader (Berthold, Offenburg, Germany). Each dose was analyzed 4 times in two buffy coats from 2 different donors (2 buffy coats used from 2 different healthy blood donors with final n=4 values).

primary human monocytes = test: Cell viability in human monocytes (Alamar Blue); format: cell-based; settings: 24 h
Protocol: Cell cultures: Human primary monocytes were extracted from the whole blood of medically healthy volunteers, who provided written informed consent at the local blood bank (University Hospital of Freiburg, Germany), following a standardized protocol (gradient preparation, Lymphocytes separation medium, PAN Biotech, P04-60125, Aidenbach, Germany) using completely endotoxin-free cultivation. Using 50 ml tubes, 25 ml Pancoll was loaded with 25 ml of blood (buffy coats). The gradient was established by centrifugation at 1800 rpm, 20° C. for 40 min with slow acceleration and deceleration. Peripheral blood mononuclear cells in the interphase were carefully removed and re-suspended in 50 ml pre-warmed phosphate-buffered saline (PBS) (Pan Biotech, P04-36500), followed by centrifugation for 10 min at 1600 rpm and 20° C. The supernatant was discarded and the pellet washed in 50 ml PBS and centrifuged as described above. […] Enriched monocytes were then ready to be used for the experiments. […]
Cell viability: Cells were incubated with the cannabinoids (3 doses, n=4) for 24 h. Cytotoxicity was analyzed by Alamar Blue staining (formazan). […] The plate was then incubated at 37° C. for 2 h in a humidified 5% CO2 atmosphere, and the color reaction determined using a 96-well plate reader (Berthold, Offenburg, Germany, excitation 544 nm, emission 590 nm). […]

[5] = test system: IL-1-treated human dermal fibroblasts; test: IL-1-induced inflammatory parameters in human dermal fibroblasts; format: cell-based; settings: 24 h
CB2 receptor [6] = target: T1, CB2 receptor; test: CB2 antagonistic activity, CRE-Luc assay in HEK 293T-CB2 cells; format: cell-based; settings: WIN 55,212-2 repression of forskolin-induced CRE-Luc
Protocol: HEK 293T-CB1 and HEK 293T-CB2 cells (stably transfected with CB1 and CB2 cDNAs) (10^5/ml) were incubated in 24-well plates and transiently transfected with 0.5 μg/ml of the plasmid CRE-Luc that contains six consensus cAMP responsive elements (CRE) linked to firefly luciferase. Transient transfections were performed with Rotifect (Carl Roth GmbH, Karlsruhe, Germany) according to the manufacturer's instructions and harvested 24 h after transfection.
For CB2 antagonistic activity in cells the potential repression of Forskolin-induced CRE-luc inhibition induced by the compounds was analyzed.
After six hours of stimulation the cells were lysed (in 25 mM Tris-phosphate pH 7.8, 8 mM MgCl2, 1 mM DTT, 1% Triton X-100, and 7% glycerol) and luciferase activity was measured using an Autolumat LB 9501 (Berthold Technologies, Bad Wildbad, Germany) following the instructions of the luciferase assay kit (Promega, Madison, Wis.). The background obtained with the lysis buffer was subtracted in each experimental value, and the specific transactivation expressed as fold induction over basal levels (CRE-Luc).
The potential antagonistic activities of the compounds on the CB2 receptor were studied in the following. […] The negative control (untreated cells, 0% activation) is not listed.

[7] = read-out: inhibition of Poly I:C-induced MMP1
[8] = read-out: inhibition of Poly I:C-stimulated MMP9
[9] = LPS 10 ng/ml, 24 h, read-out: inhibition of LPS-stimulated PGE2 release

SMILES	inhibition at 25 µM [1, 7] [%]	inhibition at 25 µM [1, 8] [%]	inhibition of Poly I:C-stimulated TIMP1 [1]	Ki (CB1 receptor) [nM]	CB1/CB2 selectivity (CB1 receptor)	doses inhibiting IL-1-induced PGE2 [2] [µM]	doses inhibiting IL-1-stimulated IL-6 release [2] [µM]	doses inhibiting IL-1-stimulated IL-8 release [2] [µM]	inhibition of IL-1-induced PGE2 [2]	inhibition of IL-1-stimulated IL-6 release [2]	inhibition of IL-1-stimulated IL-8 release [2]	Ki (CB2 receptor [3]) [nM]	doses increasing LPS-mediated IL-1beta ([4]; LPS 10 ng/ml, 24 h) [µM]	doses inhibiting LPS-induced IL-6 ([4]; LPS 10 ng/ml, 24 h) [µM]	doses inhibiting LPS-induced IL-8 ([4]; LPS 10 ng/ml, 24 h) [µM]	doses affecting cell viability (primary human monocytes) [µM]	inhibition at 25 µM [4, 9] [%]	doses inhibiting LPS-stimulated PGE2 release ([4]; LPS 10 ng/ml, 24 h) [µM]	doses inhibiting LPS-stimulated TNFalpha release ([4]; LPS 10 ng/ml, 24 h) [µM]	inhibition of LPS-stimulated TNFalpha release ([4]; LPS 10 ng/ml, 24 h)	also measured
C=C(C)[C@H]1CCC(C)=C[C@@H]1c1c(O)cc(CCCCC)c(C(=O)OCC(O)CCC)c1O (single isomer, unassigned; (+)) [(+)-CBD-HPE, (+)-Cannabidiol hydroxypentylester]	20	40	60%	3.1	3.9	25	≥ 10	≥ 10	50%	95%	95%	0.8	25	≥ 10	25	–	–	–	–	–	doses inhibiting LPS-stimulated MMP9 ([4]; LPS 10 ng/ml, 24 h): 25 µM
C=C(C)[C@H]1CCC(C)=C[C@@H]1c1c(O)cc(CCCCC)cc1O [(+)-CBD, (+)-Cannabidiol]	~40	~40	~70%	–	–	–	≥ 0.1	≥ 0.1	more than 80%	more than 90%	more than 90%	–	–	–	25	≥ 25	~80	≥ 1	≥ 0.1	around 80%	doses inhibiting Poly I:C-induced MMP1 [1]: 25 µM; doses inhibiting Poly I:C-stimulated MMP9 [1]: ≥ 5 µM; doses inhibiting Poly I:C-stimulated TIMP1 [1]: ≥ 5 µM
C=C(C)[C@H]1CCC(C)=C[C@@H]1c1c(O)cc(CCCCC)c(C(=O)OCCO)c1O [(+)-CBD-GE, (+)-Cannabidiol glycolester]	–	30 to 50	30-50%	–	–	≥ 5	≥ 5	≥ 5	approx. 80%	around 95%	around 95%	12.9	–	≥ 0.1	–	–	~80	≥ 0.1	≥ 0.1	approx. 40%	inhibition at 25 µM ([4]; LPS 10 ng/ml, 24 h, read-out: inhibition of LPS-stimulated IL-1 release): ~40%; inhibition at 25 µM ([4]; LPS 10 ng/ml, 24 h, read-out: inhibition of LPS-stimulated isoprostane release): ~40%; doses inhibiting LPS-stimulated IL-1 release ([4]; LPS 10 ng/ml, 24 h): ≥ 0.1 µM; doses inhibiting LPS-stimulated isoprostane release ([4]; LPS 10 ng/ml, 24 h): ≥ 0.1 µM; inhibition of LPS-induced IL-6 ([4]; LPS 10 ng/ml, 24 h): around 80%; enhancement of LPS-mediated MMP9, more than LPS values ([4]; doses of 5-25 μM): 20-60%
C=C(C)[C@H]1CCC(C)=C[C@@H]1c1c(O)cc(CCCCC)c(C(=O)OC)c1O [(+)-CBD-ME, (+)-Cannabidiol methylester]	–	–	40%	345	12.3	–	–	–	–	–	–	28	25	–	–	–	–	–	–	around 20%	dose that seems to be toxic in fibroblasts [5]: 25 µM; doses increasing LPS-induced IL-8 ([4]; LPS 10 ng/ml, 24 h): 5 to 25 µM; inhibition of LPS-induced IL-6 ([4]; LPS 10 ng/ml, 24 h): around 20%
C=C(C)[C@H]1CCC(C)=C[C@@H]1c1c(O)cc(CCC)cc1O [(+)-CBDV, (+)-Cannabidivarin]	–	–	–	–	–	–	≥ 5	≥ 5	more than 80%	–	–	33.1	–	–	–	≥ 25	–	–	–	–	doses enhancing Poly I:C-stimulated MMP1 [1]: 25 µM
COc1ccc(C(=O)c2c(C)n(CCN3CCOCC3)c3cc(I)ccc23)cc1 [AM630]	–	–	–	–	–	–	–	–	–	–	–	–	–	–	–	–	–	–	–	–	CB2 antagonistic activity (CB2 receptor [6]): prevented
